Measured values: patent US9700057B2, “Bradyrhizobium strains” (NOVOZYMES BIOAG A/S, priority 2011, dated 2017)

System: parental strain USDA 532C
Experiment: Kill rate of USDA 532C using the mutagen ethyl methanesulfonate (EMS)
Type: cell-based, Bradyrhizobia japonicum
Method: The following experiment(s) were performed to determine the application rate of the mutagen, ethyl methanosulfonate (EMS) that would give a 99.9-99.99 percent kill rate for parental strain USDA 532C. This rate determination will become part of the mutagenesis protocol used to generate desiccation-resistant putative mutants although the method of mutagenesis may evolve for efficiency.
Parental strain USDA 532C was grown in six 10 ml YEM disposable culture tubes for two days and 5 ml of the culture was inoculated into four 250 ml flasks containing 50 ml YEM medium. The flasks were incubated for two days at 30° C. shaker. The culture from the flasks were subsequently centrifuged in 50 ml disposable sterile tubes at 8,000 rpm for ten minutes in a Sorvall RC 6 Plus® centrifuge and combined into one tube. The pellet was re-suspended in 4 ml of fresh YEM medium and separated into four 1.5 ml microcentrifuge tubes. The tubes would each represent different application rates used for the mutagenesis process.
Once the culture have been aliquoted into separate tubes and the mutagen EMS (Sigma, C3H8O3S, FW 124.16, #M0880-1G) added to each tube, the tubes were vortexed vigorously and placed in an empty 250 ml flask. The flask containing the reaction tubes were incubated for 30 minutes at 30° C. in a shaker. Immediately following the incubation period, the tubes were washed five times with 0.16M sodium thiosulfate (STS, Fisher Chemical, Na2S2O3*5H2O, FW 248.18, #S445-3)) solution to inactivate the mutagen. After washing, the cells in the reaction tubes were sheared with 21 gauge syringe needle (BD 1 ml 21G1 Latex Free Syringe PrecisionGlide® Needle, 0.8 mm×25 mm, #309624) and dilutions were completed and plated on YEMA plates. The cell counts were available after five days incubation at 30° C. and the percent kill of the EMS application rate was calculated. To calculate the percent kill rate for each application rate, the following equation was used: ([cell count 0 μl EMS (control)−(cell count of μl EMS (treatment))÷cell count 0 μl EMS (control)]×100%). All other experiments following this experiment used this equation to calculate the percent kill rate.

[1] = Table 12, 25 μl EMS, decreased washing
[2] = Table 14 (repeat of Table 13), 40 μl EMS
[3] = Table 14 (repeat of Table 13), 45 μl EMS
[4] = Table 15 (repeat of Table 14), 45 μl EMS
[5] = Table 15 (repeat of Table 14), 50 μl EMS

In the case of `CCOS(C)(=O)=O` [EMS, ethyl methanesulfonate], the “Cell counts (approximate cfu/ml)” value (Table 10, 10 μl EMS, 30 minutes at 30° C.) is reported as “no difference”, the “Cell counts (approximate cfu/ml)” value (Table 11, 15 μl EMS) is reported as 2.24 × 10^9 cfu/ml and the Percent kill rate (Table 11, 15 μl EMS) is reported as 10.17%. For the same compound, the “Cell counts (approximate cfu/ml)” value (Table 11, 25 μl EMS) was 1.72 × 10^9 cfu/ml, the Percent kill rate (Table 11, 25 μl EMS) was 30.92% and the “Cell counts (approximate cfu/ml)” value (Table 11, 50 μl EMS) was 1.67 × 10^1 cfu/ml. The “Cell counts (approximate cfu/ml)” value [1] was 1.27 × 10^9 cfu/ml, the Percent kill rate [1] was 73.09% and the “Cell counts (approximate cfu/ml)” value (Table 12, 35 μl EMS) was 5.37 × 10^8 cfu/ml. For the same compound, the Percent kill rate (Table 12, 35 μl EMS) was 88.58%, the “Cell counts (approximate cfu/ml)” value (Table 12, 50 μl EMS) was 2.93 × 10^2 cfu/ml and the Percent kill rate (Table 12, 50 μl EMS) was 100%. The “Cell counts (approximate cfu/ml)” value (Table 13, 40 μl EMS) was 6.97 × 10^8 cfu/ml, the Percent kill rate (Table 13, 40 μl EMS) was 82.26% and the “Cell counts (approximate cfu/ml)” value (Table 13, 45 μl EMS) was 8.57 × 10^7 cfu/ml. The Percent kill rate (Table 13, 45 μl EMS) was 97.82%, the “Cell counts (approximate cfu/ml)” value (Table 13, 50 μl EMS) was 2.65 × 10^5 cfu/ml and the Percent kill rate (Table 13, 50 μl EMS) was 99.99%. For the same compound, the “Cell counts (approximate cfu/ml)” value [2] was 1.35 × 10^9 cfu/ml, the Percent kill rate [2] was 99.81% and the “Cell counts (approximate cfu/ml)” value [3] was 5.27 × 10^8 cfu/ml. For the same compound, the Percent kill rate [3] was 99.93%, the “Cell counts (approximate cfu/ml)” value (Table 14 (repeat of Table 13), 50 μl EMS) was 2.19 × 10^6 cfu/ml and the “Cell counts (approximate cfu/ml)” value [4] was 3.33 × 10^4 cfu/ml. The Percent kill rate [4] was 99.98%, the “Cell counts (approximate cfu/ml)” value [5] was 4.33 × 10^1 cfu/ml and the Percent kill rate [5] was 100%.
